From patent publication US8158638B2, “Pyrazolopyrimidine derivative” (Daiichi Sankyo Company, Limited, priority 2006, dated 2012)
Structures can show the parent of a compound that is named as a salt. Where two headings read alike, the source gives them in different places.

Assays:
[1] = test system: human breast cancer cell line SK-BR-3; assay: Cell growth inhibition assay (MTT), SK-BR-3; format: cell-based; conditions: read-out: GI50 value (50% growth inhibitory concentration)
Experimental: (§1) A cell growth inhibition assay was performed using two types of cells (human breast cancer cell line SK-BR-3 and human lung cancer cell line NCI-H460).
(§2) Cells of each type were suspended in a medium and seeded into a 96-well multi-well plate at 500 cells/150 μl/well. The test compound was dissolved in DMSO, and this was diluted with medium to prepare a sample solution (DMSO concentration: 0.5% or less). On the day following the seeding, 50 μL of DMSO-containing medium to which the test compound was not added (hereinafter called DMSO diluted solution; DMSO concentration: 0.5% or less) or the sample solution was added to the cells. An MTT assay was performed immediately after and 72 hours after adding the sample solution or the DMSO diluted solution to the cells. The MTT assay was performed as follows.
(§3) 5 mg/mL of an MTT (3-(4,5-dimethylthiazol-2-yl)-2,5-diphenyltetrazolium bromide) solution was added at 20 μL per well. Thereafter, the plate was incubated at 37° C. in 5% CO2 for four hours. The plate was centrifuged at 1200 rpm for five minutes, and then the culture supernatant was removed by suction using a dispenser. DMSO was added at 150 μL per well, and the generated formazan was dissolved. The plate was stirred using a plate mixer to uniformly color the respective wells. The absorbance of each well was measured using a plate reader at an OD of 540 nm with a reference of 660 nm.
(§4) T/C (%) for each concentration was determined by the following calculation formula and a dose-response curve was drawn to calculate the 50% growth inhibitory concentration (GI50 value), based on the assumption that the OD value measured immediately after adding the sample solution was S, the OD value measured 72 hours after adding the sample solution was T, and the OD value measured 72 hours after adding the DMSO diluted solution was C. T/C(%)=(T−S)/(C−S)×100

[2] = test system: human lung cancer cell line NCI-H460; assay: Cell growth inhibition assay (MTT), NCI-H460; format: cell-based; conditions: read-out: GI50 value (50% growth inhibitory concentration)
Experimental: as §1, §2, §3, §4

[3] = molecular target: T1, recombinant yeast Hsp90 protein (rHsp90) (Saccharomyces cerevisiae, UniProt P02829); assay: Hsp90 ATPase assay; format: biochemical; conditions: rHsp90 100 μg/mL, ATP 100 μM, 37° C., two hours, BIOMOL GREEN; read-out: IC50 value (concentration for 50% inhibition of ATP activity)
T1 construct: made in house; host or cells: Escherichia coli
Experimental: An Hsp90 ATPase assay was performed using a recombinant yeast Hsp90 protein (hereinafter called rHsp90). Yeast Hsp90 DNA was cloned from a yeast genomic DNA library according to a conventional method. The cloned yeast Hsp90 DNA was incorporated into a plasmid for expression in Escherichia coli, and the plasmid was expressed in Escherichia coli to obtain rHsp90.
The test compound was dissolved in DMSO to 10 mM. The dissolved solution was diluted with DMSO to eight concentrations ranging in three-fold dilutions from 4 mM. Each diluted solution was further 10-fold diluted with an assay buffer (100 mM Tris, pH 7.4, 20 mM KCl, 6 mM MgCl2) (concentration of each test compound solution: 400 μM, 133 μM, 44.4 μM, 14.8 μM, 4.94 μM, 1.65 μM, 0.549 μM, 0.183 μM; DMSO concentration: 10%).
rHsp90 was dissolved in a TE buffer (20 mM Tris, pH 7.4, 1 mM EDTA) to a concentration of 2.531 mg/mL. The dissolved solution was diluted with assay buffer to 125 μg/mL and dispensed to a 96-well assay plate at 40 μL per well (final concentration: 100 μg/mL).
The test compound solution was dispensed at 5 μL per well, and then the solutions in the respective wells were mixed using a plate mixer. 100 mM ATP (Sigma, Catalog No. A-7699) was diluted with assay buffer to 1 mM and dispensed at 5 μL per well (final concentration: 100 μM). The solutions in the respective wells were mixed using a plate mixer, and then the assay plate was allowed to stand in an incubator set at 37° C. for two hours.
BIOMOL GREEN Reagent (BIOMOL, Catalog No. AK-111) was dispensed at 100 μL per well, and the reaction was terminated. The solutions in the respective wells were mixed by pipetting (three times), and then 34% sodium citrate was dispensed at 10 μL per well. The solutions in the respective wells were mixed by pipetting (three times), and then the assay plate was left to stand at room temperature for 10 minutes. The absorbance at 630 nm of each well was measured with a microplate reader.
The ratio of the absorbance of the test compound-added group to the absorbance of the test compound-free group (T/C value) was determined by the following calculation formula, based on the assumption that the absorbance of the well to which the test compound and rHsp90 were added was A, the absorbance of the well to which only rHsp90 was added was B, and the absorbance of the well to which neither the test compound nor rHsp90 was added was C. T/C=(A−C)/(B−C)
Further, the concentration for 50% inhibition of ATP activity (IC50 value) was calculated using GraphPad Prism 4 (GraphPad Software, Inc.).

[4] = Homo sapiens, SK-BR-3, MTT assay, 72 hours
[5] = Homo sapiens, NCI-H460, MTT assay, 72 hours

T1 sequence (P02829 whole entry): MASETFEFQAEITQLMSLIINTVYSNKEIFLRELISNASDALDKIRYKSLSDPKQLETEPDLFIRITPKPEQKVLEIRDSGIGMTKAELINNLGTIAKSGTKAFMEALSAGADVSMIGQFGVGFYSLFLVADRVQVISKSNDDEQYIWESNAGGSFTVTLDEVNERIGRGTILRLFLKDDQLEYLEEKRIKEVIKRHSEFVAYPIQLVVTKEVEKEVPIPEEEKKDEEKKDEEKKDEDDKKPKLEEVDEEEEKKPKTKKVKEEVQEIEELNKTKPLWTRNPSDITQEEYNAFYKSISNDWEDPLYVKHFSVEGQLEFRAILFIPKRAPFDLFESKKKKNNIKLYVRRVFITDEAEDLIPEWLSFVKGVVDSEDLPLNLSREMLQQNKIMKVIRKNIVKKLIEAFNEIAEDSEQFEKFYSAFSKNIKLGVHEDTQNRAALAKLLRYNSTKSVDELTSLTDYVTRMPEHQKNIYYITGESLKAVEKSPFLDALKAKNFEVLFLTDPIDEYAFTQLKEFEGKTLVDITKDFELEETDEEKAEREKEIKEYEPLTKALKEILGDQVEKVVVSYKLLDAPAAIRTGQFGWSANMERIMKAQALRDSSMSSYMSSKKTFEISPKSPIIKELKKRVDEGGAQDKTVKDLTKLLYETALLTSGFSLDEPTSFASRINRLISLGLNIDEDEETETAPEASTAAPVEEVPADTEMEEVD

GI50 [1, 4] [nM] | GI50 [2, 5] [nM] | IC50 [3] [nM] | Compound | GI50 ([1]; Homo sapiens, SK-BR-3, 72 h) [nM] | GI50 ([2]; Homo sapiens, NCI-H460, 72 h) [nM] | GI50 ([1]; SK-BR-3, MTT assay, 72 hours) [nM] | GI50 ([2]; NCI-H460, MTT assay, 72 hours) [nM]
150 | 460 | 2200 | COc1c(C)cnc(Cn2nc3c4c(nc(N)nc42)SC(C(=O)NC2CC2)C3)c1C (stereo not drawn) [Example 12, 4-Amino-N-cyclopropyl-2-[(4-methoxy-3,5-dimethylpyridin-2-yl)methyl]-7,8-dihydro-2H-6-thia-1,2,3,5-tetraazaacenaphthylene-7-carboxamide] | – | – | – | –
148 | 224 | 1000 | COc1c(C)cnc(Cn2nc3c4c(nc(N)nc42)SCC3)c1C [Example 2, 2-[(4-Methoxy-3,5-dimethylpyridin-2-yl)methyl]-7,8-dihydro-2H-6-thia-1,2,3,5-tetraazaacenaphthylen-4-amine] | – | – | – | –
58 | 150 | 2400 | COc1c(C)cnc(Cn2nc3c4c(nc(N)nc42)SCC(NC2CC2)C3)c1C (stereo not drawn) [Example 51, N^8-Cyclopropyl-2-[(4-methoxy-3,5-dimethylpyridin-2-yl)methyl]-2,7,8,9-tetrahydro-6-thia-1,2,3,5-tetraazabenzo[cd]azulene-4,8-diamine hydrochloride] | – | – | – | –
44 | 69 | 870 | COc1c(C)cnc(Cn2nc3c4c(nc(N)nc42)SC(C#N)C3)c1C (stereo not drawn) [Example 4, 4-Amino-2-[(4-methoxy-3,5-dimethylpyridin-2-yl)methyl]-7,8-dihydro-2H-6-thia-1,2,3,5-tetraazaacenaphthylene-7-carbonitrile] | – | – | – | –
320 | 650 | 820 | COc1c(C)cnc(Cn2nc3c4c(nc(N)nc42)SCC(N(C)C(C)=O)C3)c1C (stereo not drawn) [Example 99, N-{4-Amino-2-[(4-methoxy-3,5-dimethylpyridin-2-yl)methyl]-2,7,8,9-tetrahydro-6-thia-1,2,3,5-tetraazabenzo[cd]azulen-8-yl}-N-methylacetamide] | – | – | – | –
307 | 411 | 3300 | CNC(=O)OC1CSc2nc(N)nc3c2c(nn3Cc2ncc(C)c(OC)c2C)C1 (stereo not drawn) [Example 37, 4-Amino-2-[(4-methoxy-3,5-dimethylpyridin-2-yl)methyl]-2,7,8,9-tetrahydro-6-thia-1,2,3,5-tetraazabenzo[cd]azulen-8-yl methylcarbamate] | – | – | – | –
91 | 253 | 1400 | COc1c(C)cnc(Cn2nc3c4c(nc(N)nc42)SCC(NC(C)=O)C3)c1C (stereo not drawn) [Example 43, N-{4-Amino-2-[(4-methoxy-3,5-dimethylpyridin-2-yl)methyl]-2,7,8,9-tetrahydro-6-thia-1,2,3,5-tetraazabenzo[cd]azulen-8-yl}acetamide] | – | – | – | –

Further lines, the compound ahead of its results:

Compound | GI50 [1, 4] [nM] | GI50 [2, 5] [nM] | IC50 [3] [nM] | GI50 ([1]; Homo sapiens, SK-BR-3, 72 h) [nM] | GI50 ([2]; Homo sapiens, NCI-H460, 72 h) [nM] | GI50 ([1]; SK-BR-3, MTT assay, 72 hours) [nM] | GI50 ([2]; NCI-H460, MTT assay, 72 hours) [nM]
COc1c(C)cnc(Cn2nc3c4c(nc(N)nc42)SCC(CC(N)=O)=C3)c1C [Example 115, 2-{4-Amino-2-[(4-methoxy-3,5-dimethylpyridin-2-yl)methyl]-2,7-dihydro-6-thia-1,2,3,5-tetraazabenzo[cd]azulen-8-yl}acetamide] | 77 | 194 | 740 | – | – | – | –
Cn1c(=O)c(Cn2nc3c4c(nc(N)nc42)SCC3)cc2ccccc21 [Example 165, 3-[(4-Amino-7,8-dihydro-2H-6-thia-1,2,3,5-tetraazaacenaphthylen-2-yl)methyl]-1-methylquinolin-2(1H)-one] | 6800 | 16000 | 2000 | – | – | – | –
COc1c(C)cnc(Cn2nc3c4c(nc(N)nc42)SCC(c2cccnc2)=C3)c1C [Example 223, 2-[(4-Methoxy-3,5-dimethylpyridin-2-yl)methyl]-8-pyridin-3-yl-2,7-dihydro-6-thia-1,2,3,5-tetraazabenzo[cd]azulen-4-amine] | – | – | 1100 | 140 | 250 | – | –
CNC(=O)CC1=Cc2nn(Cc3ncc(C)c(OC)c3C)c3nc(N)nc(c23)SC1 [Example 116, 2-{4-Amino-2-[(4-methoxy-3,5-dimethylpyridin-2-yl)methyl]-2,7-dihydro-6-thia-1,2,3,5-tetraazabenzo[cd]azulen-8-yl}-N-methylacetamide] | 37 | 89 | 1100 | – | – | – | –
COc1c(C)cnc(Cn2nc3c4c(nc(N)nc42)SCC(CCN2CCCC2)=C3)c1C [Example 141, 2-[(4-Methoxy-3,5-dimethylpyridin-2-yl)methyl]-8-(2-pyrrolidin-1-ylethyl)-2,7-dihydro-6-thia-1,2,3,5-tetraazabenzo[cd]azulen-4-amine] | – | – | 1000 | 41 | 260 | – | –
Nc1nc2c3c(nn(Cc4cc5ccccc5cn4)c3n1)CCS2 [Example 153] | 2600 | 5900 | 1900 | – | – | – | –
COc1c(C)cnc(Cn2nc3c4c(nc(N)nc42)SCC(CCN2CCCCC2)=C3)c1C [Example 145, 2-[(4-Methoxy-3,5-dimethylpyridin-2-yl)methyl]-8-(2-piperidin-1-ylethyl)-2,7-dihydro-6-thia-1,2,3,5-tetraazabenzo[cd]azulen-4-amine] | – | – | 890 | 19 | 45 | – | –
COc1c(C)cnc(Cn2nc3c4c(nc(N)nc42)SCC(CCO)=C3)c1C [Example 111, 2-{4-Amino-2-[(4-methoxy-3,5-dimethylpyridin-2-yl)methyl]-2,7-dihydro-6-thia-1,2,3,5-tetraazabenzo[cd]azulen-8-yl}ethanol] | – | – | 810 | 49 | 94 | – | –
N^8-(S)-Cyclopropyl-2-[(4-methoxy-3,5-dimethylpyridin-2-yl)methyl]-2,7,8,9-tetrahydro-6-thia-1,2,3,5-tetraazabenzo[cd]azulene-4,8-diamine [Example 181] | – | – | 3100 | – | – | 45 | 76
COc1c(C)cnc(Cn2nc3c4c(nc(N)nc42)SCC(C(=O)N2CCC(F)(F)C2)=C3)c1C [Example 218, 8-[(3,3-Difluoropyrrolidin-1-yl)carbonyl]-2-[(4-methoxy-3,5-dimethylpyridin-2-yl)methyl]-2,7-dihydro-6-thia-1,2,3,5-tetraazabenzo[cd]azulen-4-amine] | – | – | 2300 | 75 | 160 | – | –
COc1c(C)cnc(Cn2nc3c4c(nc(N)nc42)SCC(CCn2ccnc2)=C3)c1C [Example 137, 8-[2-(1H-Imidazol-1-yl)ethyl]-2-[(4-methoxy-3,5-dimethylpyridin-2-yl)methyl]-2,7-dihydro-6-thia-1,2,3,5-tetraazabenzo[cd]azulen-4-amine] | – | – | 950 | 67 | 200 | – | –
